Source: ChEMBL document CHEMBL1157121, “Diterpenoids from the feces of Trogopterus xanthipes” (J Nat Prod, 2010)

How the values were obtained:
Format in all cases: functional, cell-based
Jurkat = experiment: Cytotoxicity against human Jurkat cells after 48 hrs by MTT assay
U-937 = experiment: Cytotoxicity against human U937 cells after 48 hrs by MTT assay; settings: U-937, 48 h
HepG2 = experiment: Cytotoxicity against human HepG2 cells after 48 hrs by MTT assay; settings: HepG2, 48 h
HL-60 = experiment: Cytotoxicity against human HL60 cells after 48 hrs by MTT assay; settings: HL-60, 48 h

Row | Structure (SMILES) | IC50 (Jurkat) [µM] | IC50 (U-937) [µM] | IC50 (HepG2) [µM] | IC50 (HL-60) [µM]
1 | CC1=C2C=C[C@]34C[C@](C)(CC[C@@H]3[C@@]2(C)CCC1=O)C(=O)O4 [TROGOPTEROID A] | > 40 | > 40 | > 40 | > 40
2 | CC(C)c1c(O)ccc2c1CC[C@H]1[C@@](C)(CO)C(=O)C=C[C@]21C [TROGOPTEROID G] | > 40 | > 40 | > 40 | > 40
3 | C=C[C@@]1(C)CC[C@H]2C(=CC[C@H]3C(C)(C)C(=O)CC[C@]23C)C1 | > 40 | > 40 | 32.9 | > 40
4 | CC(C)c1c(O)ccc2c1CC[C@H]1[C@@](C)(CO)C(=O)CC[C@]21C [TROGOPTEROID D] | > 40 | > 40 | > 40 | > 40
5 | CC(C)c1c(O)ccc2c1CC[C@H]1C(C)(C)[C@@H](O)CC[C@]21C | > 40 | 24.7 | > 40 | 24.3
6 | C=C[C@@]1(C)CCC2=C(CC[C@H]3C(C)(C)[C@@H](O)CC[C@]23C)C1 | > 40 | > 40 | > 40 | > 40
7 | CC(C)c1c(O)ccc2c1C[C@@H](O)[C@H]1C(C)(C)C(=O)CC[C@]21C [TROGOPTEROID E] | > 40 | > 40 | > 40 | > 40
8 | C=C[C@]1(C)C[C@]2(O)CC[C@H]3C(C)(C)C(=O)CC[C@]3(C)[C@H]2CC1=O [TROGOPTEROID B] | > 40 | > 40 | > 40 | > 40
9 | CC(C)c1cc2c(cc1O)CC[C@H]1C(C)(C)CCC[C@]21C [SEMPERVIROL] | > 40 | > 40 | > 40 | > 40
10 | C=C[C@]1(C)C=C2CC[C@H]3C(C)(C)C(=O)CC[C@]3(C)[C@H]2CC1 | > 40 | > 40 | > 40 | > 40
11 | CC(C)c1cc2c(cc1O)[C@@]1(C)CCCC(C)(C)[C@@H]1CC2 [FERRUGINOL] | 35.1 | 19.7 | > 40 | > 40
12 | CC[C@@]1(O)C(=O)OCc2c1cc1n(c2=O)Cc2cc3cc(O)ccc3nc2-1 [HYDROXYCAMPTOTHECIN] | 0.03 | 0.11 | 3.7 | 0.04
13 | C=C[C@@]1(C)CC[C@H]2[C@@](O)(CC[C@H]3[C@@](C)(CO)CCC[C@@]32C)C1 [AKHDARDIOL] | > 40 | > 40 | > 40 | > 40
14 | CC(C)c1cc2c(cc1O)C[C@@H](O)[C@H]1[C@@](C)(CO)CCC[C@]21C [TROGOPTEROID F] | > 40 | > 40 | > 40 | > 40
15 | C=C[C@]1(C)C=C2CC[C@H]3[C@H](C)C(=O)CC[C@]3(C)[C@H]2CC1 | > 40 | > 40 | > 40 | > 40
16 | C=C[C@@]1(C)CC[C@H]2C(=CC[C@H]3C(C)(C)[C@@H](O)CC[C@]23C)C1 [ISOPIMARANE] | > 40 | > 40 | > 40 | > 40
17 | C=C[C@]1(C)CC2(O)CC[C@H]3C(C)(C)C(=O)C=C[C@]3(C)[C@H]2CC1=O (stereo partly specified) [TROGOPTEROID C] | > 40 | > 40 | > 40 | > 40
18 | C=C[C@@]1(C)CC[C@H]2[C@@](O)(CC[C@H]3C(C)(C)C(=O)CC[C@@]32C)C1 | > 40 | > 40 | > 40 | > 40
19 | CC(C)c1ccc2c(c1O)C[C@@H](O)[C@H]1[C@@](C)(CO)CCC[C@]21C [MACROPHYNIN E] | > 40 | > 40 | > 40 | > 40
